From patent US10035800B2 (AbbVie Inc., priority 2013, dated 2018) come the findings set out here.

Experiment [1] concerns breast cancer cell line MX-1. Nature of the experiment: MX-1 cell line proliferation assay. The experiment is classed as cell-based. The settings on record: MX-1 cells, 3-day proliferation assay, Cell Titer Glo; read-out: Cellular proliferation: EC50. The essentials:
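EC50 comes from sigmoidal fits of Cell Titer Glo luminescence relative to DMSO controls, with assay MSR 2.1. Ten-point 3-fold dilutions (top 3 or 1 μM final) were added to MX-1 breast cancer cells after overnight adhesion. Cells were at 5000/well and proliferation ran 3 days.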

Experiment [2] deals with T1, BRD4 (BDII_E352-M457) (Homo sapiens, UniProt O60885).
T1 construct: protocol; made in house
As to the kind of experiment: TR-FRET bromodomain binding assay, second bromodomain of BRD4. The settings on record: TR-FRET assay protocol G (compound 0.92 μM-15 pM); 30 nM probe. The essentials:
(§1)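 Ki values derive from IC50s using probe Kd and concentration, with IC50s fitted to normalized TR-FRET ratios (Ex 340/Em 495, 520). Compounds competed against an Alexa647-labelled BET-inhibitor (100 nM BDI, 30 nM BDII) for 8 nM His-tagged bromodomain bound by Eu-anti-His antibody, 1 h, room temperature, pH 6.0.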

For experiment [3], the target named is T2, BRD4 (BDI_K57-E168) (Homo sapiens, UniProt O60885).
T2 construct: BD1: amino acids K57-E168; made in house
As to the kind of experiment: TR-FRET bromodomain binding assay, first bromodomain of BRD4. The conditions noted are these: TR-FRET assay protocol G (compound 0.92 μM-15 pM); 100 nM probe. The essentials:
as §1

pEC50, pKi: −log10 of the molar value.

For the molecule `CCOC(=O)C1c2c[nH]c3c(=O)n(C)cc(c23)-c2cc(CS(C)(=O)=O)ccc2N1c1ccc(F)cc1` [Example 85, (S)-ethyl 4-(4-fluorophenyl)-10-methyl-7-((methylsulfonyl)methyl)-11-oxo-3,4,10,11-tetrahydro-1H-1,4,10-triazadibenzo[cd,f]azulene-3-carboxylate], in experiment [1], the pEC50 was 7.31. Also, the pKi is 7.95 in experiment [2] and 7.97 in experiment [3].
As for `CCOC(=O)N1Cc2c[nH]c3c(=O)n(C)cc(c23)-c2cc(CS(C)(=O)=O)ccc21` [Example 87, ethyl 10-methyl-7-((methylsulfonyl)methyl)-11-oxo-10,11-dihydro-1H-1,4,10-triazadibenzo[cd,f]azulene-4(3H)-carboxylate], in experiment [1], the pEC50 was 8.33. For the same molecule, the values for the negative logarithm of the Ki (pKi) in experiment [2] and in experiment [3] were 8.68 and 8.60, respectively.
`Cn1cc2c3c(c[nH]c3c1=O)CN(C(=O)Oc1ccc3ccccc3c1)c1ccc(CS(C)(=O)=O)cc1-2` [Example 90, naphthalen-2-yl 10-methyl-7-((methylsulfonyl)methyl)-11-oxo-10,11-dihydro-1H-1,4,10-triazadibenzo[cd,f]azulene-4(3H)-carboxylate]: in experiment [1], the pEC50 was 7.51. The pKi was 8.70 in experiment [2] and 8.88 in experiment [3].
On to `Cc1ccc(OC(=O)N2Cc3c[nH]c4c(=O)n(C)cc(c34)-c3cc(CS(C)(=O)=O)ccc32)cc1` [Example 91, p-tolyl 10-methyl-7-((methylsulfonyl)methyl)-11-oxo-10,11-dihydro-1H-1,4,10-triazadibenzo[cd,f]azulene-4(3H)-carboxylate], for which the pEC50 in experiment [1] is 8.74. The pKi in experiment [2] is 8.94; in experiment [3], 8.49.
The like results for `Cn1cc2c3c(c[nH]c3c1=O)CN(C(=O)Oc1ccccc1)c1ccc(CS(C)(=O)=O)cc1-2` [Example 93, phenyl 10-methyl-7-((methylsulfonyl)methyl)-11-oxo-10,11-dihydro-1H-1,4,10-triazadibenzo[cd,f]azulene-4(3H)-carboxylate] were, in that order, 8.59, 8.79 and 8.55.
Turning to `Cn1cc2c3c(c[nH]c3c1=O)CN(C(=O)Oc1ccc(F)cc1)c1ccc(CS(C)(=O)=O)cc1-2` [Example 94, 4-fluorophenyl 10-methyl-7-((methylsulfonyl)methyl)-11-oxo-10,11-dihydro-1H-1,4,10-triazadibenzo[cd,f]azulene-4(3H)-carboxylate], the pEC50 in experiment [1] was 8.22. Further, the figures for the pKi in experiment [2] and in experiment [3] were 8.46 and 8.22, respectively.
As for `COc1ccccc1OC(=O)N1Cc2c[nH]c3c(=O)n(C)cc(c23)-c2cc(CS(C)(=O)=O)ccc21` [Example 95, 2-methoxyphenyl 10-methyl-7-((methylsulfonyl)methyl)-11-oxo-10,11-dihydro-1H-1,4,10-triazadibenzo[cd,f]azulene-4(3H)-carboxylate], the pEC50 in experiment [1] was 7.85. Also, the pKi is 8.60 in experiment [2] and 8.66 in experiment [3].
As to `CC#CCOC(=O)N1Cc2c[nH]c3c(=O)n(C)cc(c23)-c2cc(CS(C)(=O)=O)ccc21` [Example 98, but-2-yn-1-yl 10-methyl-7-((methylsulfonyl)methyl)-11-oxo-10,11-dihydro-1H-1,4,10-triazadibenzo[cd,f]azulene-4(3H)-carboxylate], the pEC50 in experiment [1] was 8.36. Further, the negative-log Ki (pKi) in experiment [2] is 8.50; in experiment [3], 8.63.
Consider `CCC(=O)N1Cc2c[nH]c3c(=O)n(C)cc(c23)-c2cc(CS(C)(=O)=O)ccc21` [Example 105, 10-methyl-7-((methylsulfonyl)methyl)-4-propionyl-3,4-dihydro-1H-1,4,10-triazadibenzo[cd,f]azulen-11(10H)-one], for which the pEC50 in experiment [1] was 7.79. For the same molecule, the results for the pKi in experiment [2] and in experiment [3] were 8.57 and 8.26, respectively.
On to `CC(C)CC(=O)N1Cc2c[nH]c3c(=O)n(C)cc(c23)-c2cc(CS(C)(=O)=O)ccc21` [Example 106, 10-methyl-4-(3-methylbutanoyl)-7-((methylsulfonyl)methyl)-3,4-dihydro-1H-1,4,10-triazadibenzo[cd,f]azulen-11(10H)-one], for which the pEC50 in experiment [1] is 7.72. For the same molecule, the negative-log Ki (pKi) is 8.72 in experiment [2] and 8.23 in experiment [3].
With `Cn1cc2c3c(c[nH]c3c1=O)CN(C(=O)CC(C)(C)C)c1ccc(CS(C)(=O)=O)cc1-2` [Example 107, 4-(3,3-dimethylbutanoyl)-10-methyl-7-((methylsulfonyl)methyl)-3,4-dihydro-1H-1,4,10-triazadibenzo[cd,f]azulen-11(10H)-one], the pEC50 in experiment [1] is 8.15. Besides, the pKi in experiment [2] was 8.42; in experiment [3], 8.19.
Regarding `Cn1cc2c3c(c[nH]c3c1=O)CN(C(=O)Cc1ccccc1)c1ccc(CS(C)(=O)=O)cc1-2` [Example 108, 10-methyl-7-((methylsulfonyl)methyl)-4-(2-phenylacetyl)-3,4-dihydro-1H-1,4,10-triazadibenzo[cd,f]azulen-11(10H)-one], the pEC50 in experiment [1] is 6.78. Moreover, the pKi in experiment [2] was 8.68; in experiment [3], 7.86.
Take `COC(=O)CCC(=O)N1Cc2c[nH]c3c(=O)n(C)cc(c23)-c2cc(CS(C)(=O)=O)ccc21` [Example 111, methyl 4-(10-methyl-7-((methylsulfonyl)methyl)-11-oxo-10,11-dihydro-1H-1,4,10-triazadibenzo[cd,f]azulen-4(3H)-yl)-4-oxobutanoate]: the pEC50 in experiment [1] is 7.08. Further, the values for the negative-log Ki (pKi) in experiment [2] and in experiment [3] were 8.48 and 8.11, respectively.
`Cn1cc2c3c(c[nH]c3c1=O)CN(C(=O)C1CC1)c1ccc(CS(C)(=O)=O)cc1-2` [Example 115, 4-(cyclopropanecarbonyl)-10-methyl-7-((methylsulfonyl)methyl)-3,4-dihydro-1H-1,4,10-triazadibenzo[cd,f]azulen-11(10H)-one]: the pEC50 in experiment [1] is 8.11. Moreover, the results for the pKi in experiment [2] and in experiment [3] were 8.57 and 8.06, respectively.
Take `Cn1cc2c3c(c[nH]c3c1=O)C(CN1C(=O)c3ccccc3C1=O)N(c1ccc(F)cc1F)c1ccc(CS(C)(=O)=O)cc1-2` (stereo not drawn) [Example 117, 2-((4-(2,4-difluorophenyl)-10-methyl-7-((methylsulfonyl)methyl)-11-oxo-3,4,10,11-tetrahydro-1H-1,4,10-triazadibenzo[cd,f]azulen-3-yl)methyl)isoindoline-1,3-dione]: the pEC50 in experiment [1] is less than 6.00. In addition, the pKi in experiment [2] is 8.90; in experiment [3], 7.14.
`CNC(=O)CCC1c2c[nH]c3c(=O)n(C)cc(c23)-c2cc(CS(C)(=O)=O)ccc2N1c1ccc(F)cc1F` (stereo not drawn) [Example 118, 3-(4-(2,4-difluorophenyl)-10-methyl-7-((methylsulfonyl)methyl)-11-oxo-3,4,10,11-tetrahydro-1H-1,4,10-triazadibenzo[cd,f]azulen-3-yl)-N-methylpropanamide]: the pEC50 in experiment [1] was 6.76. The negative logarithm of the Ki (pKi) was 8.86 in experiment [2] and 7.90 in experiment [3].
Consider `CN(C)C(=O)CCC1c2c[nH]c3c(=O)n(C)cc(c23)-c2cc(CS(C)(=O)=O)ccc2N1c1ccc(F)cc1F` (stereo not drawn) [Example 119, 3-(4-(2,4-difluorophenyl)-10-methyl-7-((methylsulfonyl)methyl)-11-oxo-3,4,10,11-tetrahydro-1H-1,4,10-triazadibenzo[cd,f]azulen-3-yl)-N,N-dimethylpropanamide], for which, in experiment [1], the pEC50 is 6.87. For the same molecule, the pKi is 9.22 in experiment [2] and 7.92 in experiment [3].
As to `Cn1cc2c3c(c[nH]c3c1=O)C(CCC(=O)N1CCOCC1)N(c1ccc(F)cc1F)c1ccc(CS(C)(=O)=O)cc1-2` (stereo not drawn) [Example 120, 4-(2,4-difluorophenyl)-10-methyl-7-((methylsulfonyl)methyl)-3-(3-morpholino-3-oxopropyl)-3,4-dihydro-1H-1,4,10-triazadibenzo[cd,f]azulen-11(10H)-one], the pEC50 in experiment [1] is less than 6.00. Also, the negative-log Ki (pKi) in experiment [2] was 8.80; in experiment [3], 8.03.
Regarding `Cn1cc2c3c(c[nH]c3c1=O)C(CCC(=O)NC1CCOCC1)N(c1ccc(F)cc1F)c1ccc(CS(C)(=O)=O)cc1-2` (stereo not drawn) [Example 121, 3-(4-(2,4-difluorophenyl)-10-methyl-7-((methylsulfonyl)methyl)-11-oxo-3,4,10,11-tetrahydro-1H-1,4,10-triazadibenzo[cd,f]azulen-3-yl)-N-(tetrahydro-2H-pyran-4-yl)propanamide], the pEC50 in experiment [1] was less than 6.00. Further, the negative-log Ki (pKi) is 9.10 in experiment [2] and 8.18 in experiment [3].
Regarding `CN(NC(=O)CCC1c2c[nH]c3c(=O)n(C)cc(c23)-c2cc(CS(C)(=O)=O)ccc2N1c1ccc(F)cc1F)c1ccccc1` (stereo not drawn) [Example 122, 3-(4-(2,4-difluorophenyl)-10-methyl-7-((methylsulfonyl)methyl)-11-oxo-3,4,10,11-tetrahydro-1H-1,4,10-triazadibenzo[cd,f]azulen-3-yl)-N′-methyl-N′-phenylpropanehydrazide], in experiment [1], the pEC50 was less than 6.00. Also, the pKi in experiment [2] is 9.04; in experiment [3] it was 7.97.
The like results for `Cn1cc2c3c(c[nH]c3c1=O)C(CCC(=O)NCc1ccccc1)N(c1ccc(F)cc1F)c1ccc(CS(C)(=O)=O)cc1-2` (stereo not drawn) [Example 123, N-benzyl-3-(4-(2,4-difluorophenyl)-10-methyl-7-((methylsulfonyl)methyl)-11-oxo-3,4,10,11-tetrahydro-1H-1,4,10-triazadibenzo[cd,f]azulen-3-yl)propanamide] were, in that order, less than 6.00, 9.01 and 8.00.
